# How the values were obtained:
# [1] = test system: human pancreatic cancer cells, MiaPaCa-2 cells; assay: Test Example 1: antitumor effects of arctigenin treatment and radiation therapy in mice transplanted with MiaPaCa-2 cells; assay type: in vivo, BALB/cAJc1-nu/nu mice
# Experimental: The antitumor effects of arctigenin treatment and radiation therapy were evaluated. To BALB/cAJc1-nu/nu mice (CLEA Japan, Inc.), 1×10^6 human pancreatic cancer cells, MiaPaCa-2 cells were subcutaneously transplanted. On day 14 after the transplantation, the mice to which the cells were transplanted were divided into four groups of (a) untreated group, (b) arctigenin treatment group, (c) radiation therapy group and (d) arctigenin treatment-radiation therapy-combination group. The arctigenin treatment group and the combination group were treated with arctigenin for two weeks. The arctigenin treatment was conducted by giving feed containing 0.5% (w/w) of the burdock fruit extract of Example 1 to the mice. When the dose of arctigenin was calculated assuming that the daily intake of the feed of the mice was 3 to 5 g, the dose was 1.5 to 2.5 mg/individual/day. After two weeks of the arctigenin treatment, radiation was applied to the tumors of the radiation therapy group and the combination group using an x-ray irradiator (Faxitron X-ray (model: CP160)) under the setting conditions of 160 kV and 6.3 mA at a dose of 20 Gy/fraction through a copper plate filter. Then, the arctigenin administration group and the combination group were treated with arctigenin for two weeks. After the arctigenin treatment, the tumor sizes and the tumor weights of the groups were measured. In addition, the tumors were collected and pathologically analyzed.
# [2] = test system: human pancreatic cancer cells, MiaPaCa-2 cells; assay: Test Example 2: order of arctigenin treatment and radiation therapy in mice transplanted with MiaPaCa-2 cells; assay type: in vivo, BALB/cAJc1-nu/nu mice
# Experimental: In order to evaluate whether the order of the burdock fruit extract treatment and the radiation therapy would affect the antitumor effects, arctigenin treatment was conducted for two weeks either before or after conducting radiation therapy. To BALB/cAJc1-nu/nu mice (CLEA Japan, Inc.), 1×10^6 human pancreatic cancer cells, MiaPaCa-2 cells were subcutaneously transplanted. On day 14 after the transplantation, the mice to which the cells were transplanted were divided into (a) untreated group, (b) arctigenin treatment group, (c) radiation therapy group and (d) arctigenin treatment-radiation therapy-combination group. The (b) arctigenin treatment group was further divided into a group in which two-week arctigenin treatment was started 14 days after the transplantation and a group in which two-week arctigenin treatment was started four weeks after the transplantation. […] When the dose of arctigenin was calculated assuming that the daily intake of the feed of the mice was 3 to 5 g, the dose was 1.5 to 2.5 mg/individual/day. […] After the two-week arctigenin treatment after the radiation therapy, the tumor sizes and the tumor weights of the groups were measured. In addition, the tumors were collected and pathologically analyzed.
# [3] = cited from earlier work
# [4] = combination of arctigenin treatment and radiation therapy (20 Gy/fraction), two weeks after the radiation therapy, vs untreated group
smiles,measurement,setting,value
COc1cc(C[C@H]2C(=O)OC[C@@H]2Cc2ccc(OC)c(OC)c2)ccc1O [arctigenin],intratumoral hypoxic region (photon counts/tumor volume) using IVIS,"[1]; after the arctigenin treatment (before radiation therapy), vs untreated group, FIG. 3, FIG. 4",significantly smaller
same,average tumor size,"[1]; after two weeks of first arctigenin treatment (before radiation therapy), vs untreated group, feed containing 0.5% (w/w) burdock fruit extract of Example 1, arctigenin 1.5 to 2.5 mg/individual/day, FIG. 2",significantly smaller
same,tumor size,"[1]; arctigenin treatment alone, after end of treatment (two weeks after the radiation therapy), vs untreated group",a tendency towards a smaller tumor size
same,tumor sizes,[1]; [4],significantly smaller
same,tumor weights,[1]; [4],significantly smaller
same,tumors (size),"[1]; combination of arctigenin treatment and radiation therapy, vs radiation therapy alone",significantly small
same,hypoxic state in the tumor,"[2]; arctigenin treatment before the radiation therapy, IVIS, FIG. 12",improved
same,average tumor size,"[2]; two-week arctigenin treatment before radiation therapy (AG-Con, RT(+)) vs arctigenin treatment after radiation therapy (Con-AG, RT(+)), FIG. 11",shrank significantly
same,solubility in water,[3],insoluble

# Source: patent US20210170026A1, “ANTICANCER AGENT, RADIOSENSITIZER, AND FOOD COMPOSITION” (KRACIE PHARMA, LTD., priority 2016, published 2021)
